For one data set, the system named is Raji. In words: Inhibition of 12-O-tetradecanoylphorbol-13-acetate-induced EBV-early antigen activation in human Raji cells assessed as EA induction at 1000 molar ratio relative to 12-O-tetradecanoylphorbol-13-acetate by immunofluorescence technique. In kind it is cell-based. Further details: scale not given: the % may be the effect or the level left. Particulars: human gammaherpesvirus 4.
In the case of `COC(=O)CC[C@@H](C)[C@H]1CC(=O)[C@@]2(C)C3=C(C(=O)[C@@H](OC(C)=O)[C@]12C)[C@@]1(C)CC[C@H](O)C(C)(C)[C@@H]1CC3=O` [METHYL LUCIDENATE E2], the Activity was 1.2%.
As to `COC(=O)CC[C@@H](C)[C@H]1CC(=O)[C@@]2(C)C3=C(C(=O)C[C@]12C)[C@@]1(C)CCC(=O)C(C)(C)[C@@H]1CC3=O` [METHYL LUCIDENATE F], the Activity is 2.1%.
The same measure, in the same setting: the same measure for `COC(=O)CC[C@@H](C)[C@H]1CC(=O)[C@@]2(C)C3=C(C(=O)[C@@H](O)[C@]12C)[C@@]1(C)CC[C@H](O)C(C)(C)[C@@H]1CC3=O` [METHYL LUCIDENATE L]: -0%.
On the same count and under the same terms, the same measure for `COC(=O)CC[C@@H](C)[C@H]1CC(=O)[C@@]2(C)C3=C(C(=O)[C@@H](OC(C)=O)[C@]12C)[C@@]1(C)CC[C@H](O)C(C)(C)[C@@H]1C[C@@H]3O` [METHYL LUCIDENATE P]: 2.3%.
`COC(=O)CC[C@@H](C)[C@H]1C[C@H](O)[C@@]2(C)C3=C(C(=O)C[C@]12C)[C@@]1(C)CCC(=O)C(C)(C)[C@@H]1C[C@@H]3O` [METHYL LUCIDENATE Q]: the Activity is -0%.

Tested on in another data set: not listed separately
In words: Cytotoxicity against human Raji cells assessed as cell viability at 1000 molar ratio by trypan blue staining method. In kind it is cell-based. Particulars: read-out: Activity.
In the case of `COC(=O)CC[C@@H](C)[C@H]1CC(=O)[C@@]2(C)C3=C(C(=O)[C@@H](OC(C)=O)[C@]12C)[C@@]1(C)CC[C@H](O)C(C)(C)[C@@H]1CC3=O` [METHYL LUCIDENATE E2], the viability at 1000 molar ratio worked out at 70%.
`COC(=O)CC[C@@H](C)[C@H]1CC(=O)[C@@]2(C)C3=C(C(=O)C[C@]12C)[C@@]1(C)CCC(=O)C(C)(C)[C@@H]1CC3=O` [METHYL LUCIDENATE F]: the viability at 1000 molar ratio came to 70%.
The same measure, in the same setting: the same measure for `COC(=O)CC[C@@H](C)[C@H]1CC(=O)[C@@]2(C)C3=C(C(=O)[C@@H](O)[C@]12C)[C@@]1(C)CC[C@H](O)C(C)(C)[C@@H]1CC3=O` [METHYL LUCIDENATE L]: 70%.
Same read-out and setting: in the case of `COC(=O)CC[C@@H](C)[C@H]1CC(=O)[C@@]2(C)C3=C(C(=O)[C@@H](OC(C)=O)[C@]12C)[C@@]1(C)CC[C@H](O)C(C)(C)[C@@H]1C[C@@H]3O` [METHYL LUCIDENATE P] it was 70%.
On the same count and under the same terms, the same measure for `COC(=O)CC[C@@H](C)[C@H]1C[C@H](O)[C@@]2(C)C3=C(C(=O)C[C@]12C)[C@@]1(C)CCC(=O)C(C)(C)[C@@H]1C[C@@H]3O` [METHYL LUCIDENATE Q]: 70%.

A further data set concerns Raji. In words: Inhibition of 12-O-tetradecanoylphorbol-13-acetate-induced EBV-early antigen activation in human Raji cells assessed as EA induction at 10 molar ratio relative to 12-O-tetradecanoylphorbol-13-acetate by immunofluorescence technique. Type of data set: cell-based. Further details: scale not given: the % may be the effect or the level left. Particulars: human gammaherpesvirus 4.
For the molecule `COC(=O)CC[C@@H](C)[C@H]1CC(=O)[C@@]2(C)C3=C(C(=O)[C@@H](OC(C)=O)[C@]12C)[C@@]1(C)CC[C@H](O)C(C)(C)[C@@H]1CC3=O` [METHYL LUCIDENATE E2], the Activity turned out to be 95.4%.
On to `COC(=O)CC[C@@H](C)[C@H]1CC(=O)[C@@]2(C)C3=C(C(=O)C[C@]12C)[C@@]1(C)CCC(=O)C(C)(C)[C@@H]1CC3=O` [METHYL LUCIDENATE F], for which the Activity was 98.3%.
Still for that read-out and setting: the same measure for `COC(=O)CC[C@@H](C)[C@H]1CC(=O)[C@@]2(C)C3=C(C(=O)[C@@H](O)[C@]12C)[C@@]1(C)CC[C@H](O)C(C)(C)[C@@H]1CC3=O` [METHYL LUCIDENATE L]: 92.6%.
The same measure, in the same setting: the same measure for `COC(=O)CC[C@@H](C)[C@H]1CC(=O)[C@@]2(C)C3=C(C(=O)[C@@H](OC(C)=O)[C@]12C)[C@@]1(C)CC[C@H](O)C(C)(C)[C@@H]1C[C@@H]3O` [METHYL LUCIDENATE P]: 97.6%; for `COC(=O)CC[C@@H](C)[C@H]1C[C@H](O)[C@@]2(C)C3=C(C(=O)C[C@]12C)[C@@]1(C)CCC(=O)C(C)(C)[C@@H]1C[C@@H]3O` [METHYL LUCIDENATE Q]: 95.4%.

Another data set has as its system Raji. Put plainly: Inhibition of 12-O-tetradecanoylphorbol-13-acetate-induced EBV-early antigen activation in human Raji cells assessed as EA induction at 500 molar ratio relative to 12-O-tetradecanoylphorbol-13-acetate by immunofluorescence technique. Further details: scale not given: the % may be the effect or the level left. Type of data set: cell-based. To be noted: human gammaherpesvirus 4.
As for `COC(=O)CC[C@@H](C)[C@H]1CC(=O)[C@@]2(C)C3=C(C(=O)[C@@H](OC(C)=O)[C@]12C)[C@@]1(C)CC[C@H](O)C(C)(C)[C@@H]1CC3=O` [METHYL LUCIDENATE E2], the Activity was 27.9%.
On the same count and under the same terms, the same measure for `COC(=O)CC[C@@H](C)[C@H]1CC(=O)[C@@]2(C)C3=C(C(=O)C[C@]12C)[C@@]1(C)CCC(=O)C(C)(C)[C@@H]1CC3=O` [METHYL LUCIDENATE F]: 26.8%; for `COC(=O)CC[C@@H](C)[C@H]1CC(=O)[C@@]2(C)C3=C(C(=O)[C@@H](O)[C@]12C)[C@@]1(C)CC[C@H](O)C(C)(C)[C@@H]1CC3=O` [METHYL LUCIDENATE L]: 21.7%; for `COC(=O)CC[C@@H](C)[C@H]1CC(=O)[C@@]2(C)C3=C(C(=O)[C@@H](OC(C)=O)[C@]12C)[C@@]1(C)CC[C@H](O)C(C)(C)[C@@H]1C[C@@H]3O` [METHYL LUCIDENATE P]: 28.9%.
On the same count and under the same terms, in the case of `COC(=O)CC[C@@H](C)[C@H]1C[C@H](O)[C@@]2(C)C3=C(C(=O)C[C@]12C)[C@@]1(C)CCC(=O)C(C)(C)[C@@H]1C[C@@H]3O` [METHYL LUCIDENATE Q] it was 24.6%.

Tested on in the next data set: not listed separately
Put plainly: Inhibition of 12-O-tetradecanoylphorbol-13-acetate-induced EBV-early antigen activation in human Raji cells assessed per 32 pmol TPA by immunofluorescence technique. Type of data set: cell-based, human gammaherpesvirus 4.
Settings: not given
Take `COC(=O)CC[C@@H](C)[C@H]1CC(=O)[C@@]2(C)C3=C(C(=O)[C@@H](OC(C)=O)[C@]12C)[C@@]1(C)CC[C@H](O)C(C)(C)[C@@H]1CC3=O` [METHYL LUCIDENATE E2]: the IC50 was 288 molar ratio.
For `COC(=O)CC[C@@H](C)[C@H]1CC(=O)[C@@]2(C)C3=C(C(=O)C[C@]12C)[C@@]1(C)CCC(=O)C(C)(C)[C@@H]1CC3=O` [METHYL LUCIDENATE F], the IC50 stood at 285 molar ratio.
Still for that read-out and setting: in the case of `COC(=O)CC[C@@H](C)[C@H]1CC(=O)[C@@]2(C)C3=C(C(=O)[C@@H](O)[C@]12C)[C@@]1(C)CC[C@H](O)C(C)(C)[C@@H]1CC3=O` [METHYL LUCIDENATE L] it was 275 molar ratio; in that of `COC(=O)CC[C@@H](C)[C@H]1CC(=O)[C@@]2(C)C3=C(C(=O)[C@@H](OC(C)=O)[C@]12C)[C@@]1(C)CC[C@H](O)C(C)(C)[C@@H]1C[C@@H]3O` [METHYL LUCIDENATE P], 293 molar ratio; in that of `COC(=O)CC[C@@H](C)[C@H]1C[C@H](O)[C@@]2(C)C3=C(C(=O)C[C@]12C)[C@@]1(C)CCC(=O)C(C)(C)[C@@H]1C[C@@H]3O` [METHYL LUCIDENATE Q], 283 molar ratio.

The next data set relates to Raji. In words: Inhibition of 12-O-tetradecanoylphorbol-13-acetate-induced EBV-early antigen activation in human Raji cells assessed as EA induction at 100 molar ratio relative to 12-O-tetradecanoylphorbol-13-acetate by immunofluorescence technique. Further details: scale not given: the % may be the effect or the level left. In kind it is cell-based. Particulars: human gammaherpesvirus 4.
As to `COC(=O)CC[C@@H](C)[C@H]1CC(=O)[C@@]2(C)C3=C(C(=O)[C@@H](OC(C)=O)[C@]12C)[C@@]1(C)CC[C@H](O)C(C)(C)[C@@H]1CC3=O` [METHYL LUCIDENATE E2], the Activity worked out at 76%.
On to `COC(=O)CC[C@@H](C)[C@H]1CC(=O)[C@@]2(C)C3=C(C(=O)C[C@]12C)[C@@]1(C)CCC(=O)C(C)(C)[C@@H]1CC3=O` [METHYL LUCIDENATE F], for which the Activity was 75.4%.
Still for that read-out and setting: in the case of `COC(=O)CC[C@@H](C)[C@H]1CC(=O)[C@@]2(C)C3=C(C(=O)[C@@H](O)[C@]12C)[C@@]1(C)CC[C@H](O)C(C)(C)[C@@H]1CC3=O` [METHYL LUCIDENATE L] it was 71.9%.
Turning to `COC(=O)CC[C@@H](C)[C@H]1CC(=O)[C@@]2(C)C3=C(C(=O)[C@@H](OC(C)=O)[C@]12C)[C@@]1(C)CC[C@H](O)C(C)(C)[C@@H]1C[C@@H]3O` [METHYL LUCIDENATE P], the Activity is 77.4%.
Still for that read-out and setting: the same measure for `COC(=O)CC[C@@H](C)[C@H]1C[C@H](O)[C@@]2(C)C3=C(C(=O)C[C@]12C)[C@@]1(C)CCC(=O)C(C)(C)[C@@H]1C[C@@H]3O` [METHYL LUCIDENATE Q]: 73.7%.
